Data reported in US20120302530A1, “23-HYDROXY-BETULINIC ACID DERIVATIVES, PREPARATION METHODS AND USES THEREOF” (priority 2009, published 2012).

Legend:
[1] = system: normal mice fibroblast (MEF); assay: MTT cytotoxicity, normal cell strain; format: cell-based, mouse; conditions: for EC50: Normal Mouse Fibroblast, 72 hours, MTT; for sensitivity of normal cells to the compounds: concentration up to 30 μm, cells can still grow well
normal person PBMC = assay: Toxicity to PBMC cells (MTT, day 7); format: cell-based, human; conditions: Homo sapiens, 168 h, day 7, MTT
Description: (2) Toxicity of compounds zhangnan-5, zhangnan-7 and zhangnan-8 to C8166 and PBMC cells:
C8166 (human T cell line) and PBM (using lymphocyte isolation liquid to separate from normal human peripheral blood, and adhered mononuclear cell separated from PBMC) cells in exponential phase are taken. The cells are resuspended after centrifugal (1000 r•min-1, 10 min), and the concentrations are adjusted to 4×10^5/ml and 2×10^6/ml. The test samples are double diluted on the 96-hole cell culture plate. In total 6 gradients are set, each having 3 duplicate holes. In addition, positive control group and cell control group are set. Upon adding cell suspended liquid, the test samples are placed in incubator of 370C and 5% CO2 for incubation. On the seventh (7th) day, MTT method is used to determine toxicity of the samples to cells.
Inhibition ratio of cell growth (%)=(1−experimental hole OD value/control hole (OD value)×100%

SK-MEL-5 = assay: MTT cytotoxicity, human tumor cell strain; format: cell-based; conditions: SK-MEL-5, Skin (melanoma), 72 hours
Description: (§1) We use human tumor cell lines to conduct cytotoxicity analysis. Thirty-one (31) kinds of human tumor cell strains are cultivated in the normal culture medium containing various compounds of zhangnan-5, zhangnan-7 and zhangnan-8. The human tumor lines are bought from ATCC and NCI, and is cultivated with DMEM culture solution containing 10% FBS in 370C couveuse containing 5% CO2. The merged cells are digested by trypsinase, and are counted after washed by the culture solution. 3000˜6000 cells are added into each hole of the 96-hole culture plate, and are hatched for 16 hours or 24 hours. Then, compounds zhangnan-5, zhangnan-7 and zhangnan-8 with different concentrations are added into the holes. Upon further cultivated for another 72 hours, MTT tests are conducted to cells in group treated with drugs and the control group cells, to determine the survival condition of the cells.

U-251 = assay: MTT cytotoxicity, human tumor cell strain; format: cell-based; conditions: U-251, Malignant Glioma, 72 hours
Description: as §1

NCI-H23 = assay: MTT cytotoxicity, human tumor cell strain; format: cell-based; conditions: NCI-H23, Lung, 72 hours
Description: as §1

Widr = assay: MTT cytotoxicity, human tumor cell strain; format: cell-based; conditions: Colon, 72 hours
Description: as §1

LnCAP = assay: MTT cytotoxicity, human tumor cell strain; format: cell-based; conditions: Prostate, 72 hours
Description: as §1

MCF-7 = assay: MTT cytotoxicity, human tumor cell strain; format: cell-based; conditions: MCF7, MCF-7, Mammary Gland, 72 hours
Description: as §1

MDA-MB-231 = assay: MTT cytotoxicity, human tumor cell strain; format: cell-based; conditions: MDA-MB-231, Mammary Gland, 72 hours
Description: as §1

AU-565 = assay: MTT cytotoxicity, human tumor cell strain; format: cell-based; conditions: AU565, AU-565, Mammary Gland, 72 hours
Description: as §1

IGROV1 = assay: MTT cytotoxicity, human tumor cell strain; format: cell-based; conditions: IGROV-1, IGROV1, Ovary, 72 hours
Description: as §1

Jurkat = assay: MTT cytotoxicity, human tumor cell strain; format: cell-based; conditions: Leukemia T Cell, 72 hours
Description: as §1

Raji = assay: MTT cytotoxicity, human tumor cell strain; format: cell-based; conditions: Lymphoma, 72 hours
Description: as §1

LoVo = assay: MTT cytotoxicity, human tumor cell strain; format: cell-based; conditions: Colon, 72 hours
Description: as §1

MDA-MB-435 = assay: MTT cytotoxicity, human tumor cell strain; format: cell-based; conditions: MDA-MB-435, Mammary Gland, 72 hours
Description: as §1

HIV-1IIIB = assay: Inhibition of HIV-1IIIB induced syncytium formation in C8166 cells; format: cell-based; conditions: for therapeutic index TI: HIV-1IIIB syncytium, C8166, TI=IC50/EC50; for EC50: Human immunodeficiency virus 1, HIV-1IIIB, C8166 cells, third day after infection
Description: (3) The inhibition effects of compounds zhangnan-5, zhangnan-7 and zhangnan-8 to virus HIV-1IIIB inducing C8166 cell to form syncytium: (see JIANG, Haiou; WANG, Xu; L I, Rurun; CHEN, Dagang; B I, Kunlong, Experimental Research on Recipe Sanhuangsan Capsule for Resisting AIDS virus in Vitro, [J]. Shandong Journal of Traditional Chinese medicine, 2005.8 (1):21-26).
The test sample is double diluted with culture medium on the 96-hole flat culture plate. There are 8 dilutions in total. Each hole 100 ul has 2 duplicate holes. In addition, there are positive control group, cell control group and virus control group. 80 ul C8166 cell of 4×10^5/ml is added into each hole, and then 20 ul virus HIV-1IIIB supernatant is added into each hole. The final volume of each hole is 200 ul. The sample is placed in incubator of 370C, 5% CO2 for cultivation. […] Under the inverted microscope, the number of syncytium formed by virus HIV-1IIIB inducing C8166 cell is counted. […] The following formula is used to calculate the inhibition ratio of the sample to syncytium.
Inhibition ratio formed by syncytium (%)=(1−experimental hole syncytium number/control hole syncytium number)×100%

[2] = Side effects in the xenograft studies; conditions: tumor-bearing nude mice, 30 mg/kg oral
Description: (7) Drug administration of human tumor xenograft model and nude mice tumor transplantation model: (see Harrison S D Jr; Growth of human tumor cells in athymic mice; J Natl Cancer Inst. 1991 Oct. 16; 83 (20): 1509).
T cell deficiency nude mice (nu/nu) (male, 6-week old) are bought from Charles River Lab, and are raised in pathogen-free environment according to guidelines of animal raising and using committee of university. The number of […] LNCaP, NCI-H23, HCT-116, G-361 and U-251 cells are suspended in 0.2 ml HBSS or matrigel (50: 50, v/v), and are subcutaneously vaccinated to the side abdomen region of the mice. When the average diameters of the tumors are 7˜8 mm, the mice having tumor size of 100˜200 mm3 are chosen, and are given with treatment group of compound zhangnan-5 prepared with corn oil and are only given with control group of empty carrier (corn oil), respectively.
In the oral feeding test, the compound zhangnan-5 (30 mg/kg) is dissolved in corn oil. Each day the mice are tube fed with 200 μl drug liquid in single dose (prepared with corn oil, containing 0.75 mg compound zhangnan-5) for 5 times a week and for 3 weeks. The control group is given placebo (corn oil) according to same method. The mice are raised separately, and are allowed to self-help feeding.

human tumor cell strains = assay: MTT cytotoxicity, human tumor cell strains (summary statement); format: cell-based; conditions: some (unnamed) human tumor cell strains, 72 hours, read-out: EC50 of some tumor cells
Description: as §1

Row | Structure (SMILES) | EC50 [1] | sensitivity of normal cells to the compounds [1] | IC50 (normal person PBMC) | EC50 (SK-MEL-5) | EC50 (U-251) | EC50 (NCI-H23) | EC50 (Widr) | EC50 (LnCAP) | EC50 (MCF-7) | EC50 (MDA-MB-231) | EC50 (AU-565) | EC50 (IGROV1) | EC50 (Jurkat) | EC50 (Raji) | EC50 (LoVo) | EC50 (MDA-MB-435) | therapeutic index TI (HIV-1IIIB) | EC50 (HIV-1IIIB) | side effects, including changes in weight [2] | EC50 (human tumor cell strains)
1 | CC(C)C1CCC2(C(=O)O)CCC3(C)C(CCC4C5(C)CCC(O)C(C)(CO)C5CCC43C)C12 (centres unmarked) [zhangnan-8, 23-hydroxyl-dihydrobetulinic acid] | > 30 µM | not sensitive | 11.6 ± 3.5 µM | 4.9 µM | 5.6 µM | 6.7 µM | 8.1 µM | 7.8 µM | 7.8 µM | 7.2 µM | 6.8 µM | 7.2 µM | 7.1 µM | 6.9 µM | 9.6 µM | 7.9 µM | 9.4 | 1.1 ± 0.09 µM | – | –
2 | CC(C)C1CCC2(C(=O)O)CCC3(C)C(CCC4C5(C)CCC(=O)C(C)(CO)C5CCC43C)C12 (centres unmarked) [zhangnan-7] | > 30 µM | not sensitive | 25.8 ± 4.9 µM | 18.5 µM | 17.8 µM | 12.8 µM | 14.8 µM | 15.6 µM | 16.9 µM | 17.5 µM | 18.2 µM | 17.4 µM | 21.3 µM | 20.5 µM | 15.2 µM | 19.3 µM | 13158 | 0.0019 ± 0.0002 µM | – | –
3 | C=C(C)C1CCC2(C(=O)O)CCC3(C)C(CCC4C5(C)CCC(=O)C(C)(CO)C5CCC43C)C12 (centres unmarked) [zhangnan-5] | > 30 µM | not sensitive | 2.4 ± 0.38 µM | 0.093 µM | 0.089 µM | 0.32 µM | 0.28 µM | 0.69 µM | 0.58 µM | 0.47 µM | 0.59 µM | 2.1 µM | 0.14 µM | 0.098 µM | 0.15 µM | 0.55 µM | 4.6 | 0.5 ± 0.07 µM | no obvious side effects have been found | < 0.1 µM
